Reference: ChEMBL document CHEMBL1649426 (J Med Chem, 2011)

Experiments:
[1] = system: Human immunodeficiency virus 1; test: Antiviral activity against HIV1 LAI infected in human MT2 cells assessed as inhibition of virus-induced cytopathic effect by MTT assay; format: functional, organism-based; conditions: Human immunodeficiency virus 1, LAI
[2] = system: Human immunodeficiency virus 1; test: Antiviral activity against wild type HIV-1 ERS104 pre infected in human PHA-PBM cells assessed as inhibition of p24 Gag protein production; format: functional, organism-based; conditions: Human immunodeficiency virus 1, ERS104pre, PBMC
[3] = system: Human immunodeficiency virus 1; test: Antiviral activity against HIV-1 MDR/C infected in human PHA-PBM cells assessed as inhibition of p24 Gag protein production; format: functional, organism-based; conditions: Human immunodeficiency virus 1, MDR/C, PBMC
[4] = system: Human immunodeficiency virus 1; test: Antiviral activity against HIV-1 MDR/TM infected in human PHA-PBM cells assessed as inhibition of p24 Gag protein production; format: functional, organism-based; conditions: Human immunodeficiency virus 1, MDR/TM, PBMC
[5] = molecular target: Protease (Human immunodeficiency virus 1, UniProt Q9YQ12); test: Inhibition of HIV1 protease; format: single protein
[6] = system: Human immunodeficiency virus 1; test: Antiviral activity against HIV-1 MDR/B infected in human PHA-PBM cells assessed as inhibition of p24 Gag protein production; format: functional, organism-based; conditions: Human immunodeficiency virus 1, MDR/B, PBMC
[7] = system: Human immunodeficiency virus 1; test: Antiviral activity against HIV-1 MDR/G infected in human PHA-PBM cells assessed as inhibition of p24 Gag protein production; format: functional, organism-based; conditions: Human immunodeficiency virus 1, MDR/G, PBMC
[8] = system: Human immunodeficiency virus 1; test: Antiviral activity against HIV-1 MDR/JSL infected in human PHA-PBM cells assessed as inhibition of p24 Gag protein production; format: functional, organism-based; conditions: Human immunodeficiency virus 1, MDR/JSL, PBMC
[9] = system: Human immunodeficiency virus 1; test: Antiviral activity against HIV-1 MDR/MM infected in human PHA-PBM cells assessed as inhibition of p24 Gag protein production; format: functional, organism-based; conditions: Human immunodeficiency virus 1, MDR/MM, PBMC

Sequence of Protease (Q9YQ12 whole entry): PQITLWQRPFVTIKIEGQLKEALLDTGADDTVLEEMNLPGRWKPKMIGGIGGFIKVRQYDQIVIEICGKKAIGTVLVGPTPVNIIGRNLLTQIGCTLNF

Row | Structure (SMILES) | IC50 [1] | Ki [5] | other results
1 | CC(C)(C)NC(=O)[C@@H]1C[C@@H]2CCCC[C@@H]2CN1C[C@@H](O)[C@H](Cc1ccccc1)NC(=O)[C@H](CC(N)=O)NC(=O)c1ccc2ccccc2n1 | 15 nM |  | 
2 | CC(C)CN(C[C@@H](O)[C@H](Cc1ccccc1)NC(=O)O[C@H]1CCOC1)S(=O)(=O)c1ccc(N)cc1 | 30 nM |  | 
3 | COc1ccc(S(=O)(=O)N(CC(C)C)C[C@@H](O)[C@H](Cc2ccccc2)NC(=O)O[C@H]2CCO[C@H]3OCC[C@H]32)cc1 | 0.5 nM | 0.0027 nM | EC50 [2]: 1.9 nM; EC50 [3]: 3.7 nM; EC50 [4]: 27.5 nM; EC50 [6]: 14.5 nM; EC50 [7]: 2.6 nM; EC50 [8]: 27.5 nM; EC50 [9]: 5 nM
4 | COc1ccc(S(=O)(=O)N(CC(C)C)C[C@@H](O)[C@H](Cc2ccccc2)NC(=O)O[C@@H]2CCO[C@@H]3OCC[C@@H]32)cc1 | 19 nM | 0.068 nM | 
5 | COc1ccc(S(=O)(=O)N(CC(C)C)C[C@@H](O)[C@H](Cc2ccccc2)NC(=O)O[C@H]2CCC[C@H]3OCC[C@@H]23)cc1 | 8 nM | 0.005 nM | 
6 | COc1ccc(S(=O)(=O)N(CC(C)C)C[C@@H](O)[C@H](Cc2ccccc2)NC(=O)O[C@H]2CCO[C@H]3CCC[C@H]32)cc1 |  | 1.43 nM | 
7 | COc1ccc(S(=O)(=O)N(CC(C)C)C[C@@H](O)[C@H](Cc2ccccc2)NC(=O)O[C@H]2CCC[C@H]3CCC[C@H]32)cc1 | > 1000 nM | 9 nM | 
8 | COc1ccc(S(=O)(=O)N(CC(C)C)C[C@@H](O)[C@H](Cc2ccccc2)NC(=O)O[C@H]2CCO[C@H]3COC[C@H]32)cc1 | > 1000 nM | 5.3 nM | 
9 | COc1ccc(S(=O)(=O)N(CC(C)C)C[C@@H](O)[C@H](Cc2ccccc2)NC(=O)O[C@H]2CO[C@H]3OCC[C@H]3C2)cc1 |  | 0.11 nM | 
10 | CC(C)CN(C[C@@H](O)[C@H](Cc1ccccc1)NC(=O)O[C@H]1CCO[C@H]2OCC[C@H]21)S(=O)(=O)c1ccc(N)cc1 | 6.5 nM | 0.01 nM | 
11 | CC(C)CN(C[C@@H](O)[C@H](Cc1ccccc1)NC(=O)O[C@H]1CCO[C@H]2OCC[C@H]21)S(=O)(=O)c1ccc(CO)cc1 | 4.5 nM | 0.085 nM | 
12 | COC(=O)N[C@H](C(=O)N[C@@H](Cc1ccccc1)[C@@H](O)CN(Cc1ccc(-c2ccccn2)cc1)NC(=O)[C@@H](NC(=O)OC)C(C)(C)C)C(C)(C)C [ATAZANAVIR] |  |  | EC50 [2]: 2.7 nM; EC50 [3]: 39 nM; EC50 [4]: 75 nM; EC50 [6]: 470 nM; EC50 [7]: 19 nM; EC50 [8]: 293 nM; EC50 [9]: 205 nM
13 | Cc1cccc(C)c1OCC(=O)N[C@@H](Cc1ccccc1)[C@@H](O)C[C@H](Cc1ccccc1)NC(=O)[C@H](C(C)C)N1CCCNC1=O [LOPINAVIR] |  |  | EC50 [6]: > 1000 nM; EC50 [8]: > 1000 nM
